In US20090062255A1, “TUMOR-TARGETING EVALUATION METHODOLOGY AND COMPOUNDS RELATED THERETO” (THALLION PHARMACEUTICALS INC., priority 2007, published 2009):

Experiments:
[1] = test system: MES-SA/DX5 (doxorubicin-resistant P-glycoprotein over-expressing variant); assay: Growth inhibitory MTT assay, MES-SA/DX5; format: cell-based, human; details: 72 hours, treated over control
Experimental: Growth inhibitory activity of ECO-4601 (Compound 1) and other dibenzodiazepinone analogs was evaluated on a panel of 4 human tumor cell lines: the human uterine sarcoma MES-SA and its doxorubicin-resistant P-glycoprotein over-expressing variant, MES-SA/DX5 as well as non-aggressive and highly aggressive human breast cell lines, MCF-7 and MDA-MB-231, respectively. These four cell lines were obtained from the American Type Culture Collection (Manassas, Va.) and cultured in RPMI plus 10% fetal bovine serum (FBS) and maintained at 37° C. with 5% CO2.
Exponentially growing cells (5,000 cells per well time; cell number determined with a hemocytometer) were seeded in 96-well flat-bottom plates and allowed to grow overnight. Cells were then incubated for 72 hours with three different concentrations of ECO-4601 or analogs: 30,10, and 3 μM. The in vitro growth inhibitory activity was determined by a commercial MTT assay. All measurements were done in quadruplicate and each experiment was performed 2-3 times. The lower the value, the more cytotoxic is the compound.

[2] = test system: GL26 glioblastoma cell line; assay: MTT cytotoxicity, GL26 cell line; format: cell-based; details: 96 h, Human
Experimental: The cytotoxic activity of Compound 1 was further evaluated using a panel of brain tumor cell lines. This study was performed in collaboration with INSERM (Grenoble, France). Tumor cells (5,000 to 10,000 cells per well depending on their doubling time) were plated in 96-well flat-bottom plates and incubated for 24 hours before treatment. Tumor cells were then incubated for 96 hours with seven different concentrations of Compound 1: […], 0.01, and 0.001 μM. The in vitro cytotoxic activity was determined by a standard MTT assay.

[3] = test system: human MiaPaCa-2 tumors; assay: Human MiaPaCa-2 tumors in mice, antitumor efficacy; format: in vivo; details: 30 mg/kg SC, Q1D×5 for 3 wk, established MiaPaCa-2 tumors
Experimental: Mice bearing established (100 mm^3) human MiaPaCa-2 tumors were dosed with 30 mg/kg (Q1D×5 for 3 wk; SC administration). The positive control group was treated with gemcitabine at 60 mg/kg once a day on Monday and Thursday (TWx4). ECO-4601 as a single agent was statistically different from the vehicle control group (P ˜0.008) following SC daily dosing resulting in a T/C of 56% (FIG. 12).

[4] = biological target: T1, human EGFR (Homo sapiens, UniProt P00533); assay: Upstate Kinase Profiler, EGFR; format: biochemical
T1 construct: purchased Upstate (Kinase Profiler Service; Dundee, UK)
Experimental: Unlike current Ras signalling pathway inhibitors, ECO-4601 is not a direct kinase inhibitor. This was documented by evaluating the effect of ECO-4601 on human EGFR, c-RAF, MEK1, MAPK1 (ERK1) and MAPK2 (ERK2) kinase-activity (Upstate Kinase Profiler™ Service; Dundee, UK). ECO-4601 was tested at 0.5 μM and 5 μM in a final volume of 25 μL according to standard protocols developed by Upstate Ltd. Briefly, purified recombinant human enzymes were incubated with 25 mM Tris pH 7.5 containing EGTA, a specific substrate and γ-^32P-ATP. The reaction was initiated with MgATP mix and incubated for 40 minutes at RT. The reaction was stopped by the addition of 5 μL of a 3% phosphoric acid solution; aliquots were spotted on filters and counted. Detailed procedures are available on the Millipore Upstate website.

[5] = test system: GTP-bound Ras; assay: Ras activation pull-down assay (GST-Raf-RBD) in MCF-7 cells; format: cell-based, human; details: 6 h treatment, EGF 5 min
Experimental: Following EGF induction, Ras is activated by a nucleotide exchange reaction that removes GDP and replaces it with GTP. Physiological levels of total cellular GTP-bound Ras can be detected with pull-down assays. MCF-7 cells were treated with increasing concentrations of ECO-4601 for 6 h and the Ras-MAPK signalling pathway was then induced with EGF. After a 5 min induction period, cells were lysed and incubated with a recombinant fusion protein that contains the isolated Ras Binding Domain of c-Raf-1 fused the gluthathione-S-transferese (GST; designated GST-Raf-RBD). The presence of Ras in the GST-Raf-RBD protein complex is resolved by western blotting. As expected, after EGF induction, an increase of Ras-GTP was observed.

T1 sequence (P00533 25-1210): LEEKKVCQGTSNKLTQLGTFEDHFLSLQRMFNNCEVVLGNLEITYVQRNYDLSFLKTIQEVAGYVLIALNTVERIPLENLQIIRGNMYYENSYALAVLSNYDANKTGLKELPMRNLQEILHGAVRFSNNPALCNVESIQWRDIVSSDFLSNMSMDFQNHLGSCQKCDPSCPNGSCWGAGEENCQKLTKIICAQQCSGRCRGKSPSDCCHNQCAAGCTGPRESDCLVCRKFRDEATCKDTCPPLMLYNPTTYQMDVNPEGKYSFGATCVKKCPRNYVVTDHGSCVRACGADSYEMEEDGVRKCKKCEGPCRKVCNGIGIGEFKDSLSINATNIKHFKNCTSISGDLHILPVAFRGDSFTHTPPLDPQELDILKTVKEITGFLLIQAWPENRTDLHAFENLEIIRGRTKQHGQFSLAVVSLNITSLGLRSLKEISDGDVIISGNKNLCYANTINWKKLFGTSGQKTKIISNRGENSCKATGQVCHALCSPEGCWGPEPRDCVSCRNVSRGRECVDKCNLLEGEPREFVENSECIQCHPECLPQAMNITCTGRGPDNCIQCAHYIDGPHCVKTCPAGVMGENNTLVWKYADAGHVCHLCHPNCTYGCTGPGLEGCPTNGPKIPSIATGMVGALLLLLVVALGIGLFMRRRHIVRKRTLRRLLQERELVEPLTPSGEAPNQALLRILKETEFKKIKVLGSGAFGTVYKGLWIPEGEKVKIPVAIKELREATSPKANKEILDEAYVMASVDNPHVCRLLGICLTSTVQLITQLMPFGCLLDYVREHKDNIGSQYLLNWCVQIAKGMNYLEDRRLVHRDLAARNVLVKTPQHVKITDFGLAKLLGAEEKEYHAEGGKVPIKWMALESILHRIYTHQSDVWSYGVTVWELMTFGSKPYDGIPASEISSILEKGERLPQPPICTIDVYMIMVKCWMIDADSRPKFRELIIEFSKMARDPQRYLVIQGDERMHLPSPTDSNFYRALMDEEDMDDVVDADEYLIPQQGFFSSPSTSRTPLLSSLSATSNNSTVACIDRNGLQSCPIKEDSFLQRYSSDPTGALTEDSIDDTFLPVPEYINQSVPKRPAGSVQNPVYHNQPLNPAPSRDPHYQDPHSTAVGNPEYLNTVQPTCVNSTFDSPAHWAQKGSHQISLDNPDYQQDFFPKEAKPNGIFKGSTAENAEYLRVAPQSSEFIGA

In the case of CC(C)=CCC/C(C)=C/CC/C(C)=C/CN1C(=O)c2cccc(O)c2Nc2c(O)cc(O)cc21 [Compound 1, 10-farnesyl-4,6,8-trihydroxy-5,10-dihydrodibenzo[b,e][1,4]diazepin-11-one], the “% T/C at 10 μM” value [1] is reported as 100%, the IC50 [2] is reported as 8.9 ± 1.1 µM and the T/C [3] is reported as 56%. For the same molecule, the “direct inhibition of EGFR kinase activity (in words)” value ([4]; 0.5 μM and 5 μM) was “does not directly inhibit”, the activity at 0.5 µM ([4]; EGFR, 0.5 μM, % of enzyme activity over positive control, read-out: Kinase Activity (%) ± SD) was 128 ± 6% and the activity at 5 µM ([4]; EGFR, 5 μM, % of enzyme activity over positive control, read-out: Kinase Activity (%) ± SD) was 127 ± 9%. For the same molecule, the “effect on EGF-induced Ras activation (Ras-GTP)” value [5] was “prevented EGF from activating Ras”.
